Consider one compound from patent publication US20110262442A1, “COMPOSITIONS FOR TREATING CNS DISORDERS” (Adenios, Inc., priority 2009, published 2011).

In assay [1] the test system is hCMEC/D3 cells. The assay is described as follows: Jurkat cell migration across hCMEC/D3-seeded Transwell (in vitro BBB). As to conditions: hCMEC/D3 on Transwell, migrated cells counted after 24 hours. The assay is classed as cell-based, human. The text has this: The blood brain barrier (“BBB”) is comprised of endothelial cells. During late stages of EAE, lymphocytes are known to cross the BBB. In order to determine if adenosine receptor stimulation of brain endothelial cells could promote lymphocyte migration through the BBB, an in vitro BBB was established. The human brain endothelial cell line hCMEC/D3 (Weksler et al., “Blood-brain Barrier-specific Properties of a Human Adult Brain Endothelial Cell Line,” […] (2005); Poller et al., “The Human Brain Endothelial Cell Line hCMEC/D3 as a Human Blood-brain Barrier Model for Drug Transport Studies,” J. Neurochem. 107(5):1358-1368 (2008), which are hereby incorporated by reference in their entirety) was obtained, which has been previously described as having BBB properties.
hCMEC/D3 cells were seeded onto Transwell and allowed to grow to confluencey. 2×10^6 Jurkat cells were added to the upper chamber with or without NECA (general adenosine receptor [AR] agonist), CCPA (A1 AR agonist), CGS 21860 (A2A AR agonist), or DMSO vehicle. After 24 hours, migrated cells in the lower chamber were counted. Values are relative to the number of cells that migrate through non-HCMECD3 seeded transwells.

The subject of another assay is Z310 cells. The assay is described as follows: Jurkat cell migration across Z310-seeded Transwell (choroid plexus). As to conditions: Z310 cells on Transwell, migrated cells counted after 24 hours, n=1. The class given is cell-based, murine. How it is done: The choroid plexus (“CP”) controls lymphocyte migration into the CNS. The CP expresses the A1 and A2A adenosine receptors. EAE is prevented in mice when A2A adenosine receptor activity is blocked. EAE is enhanced when the A1 adenosine receptor is missing. It was hypothesized that A2A adenosine receptor activation promotes lymphocyte migration across the CP. Z310 cells are a murine choroid plexus cell line. To test the hypothesis, Transwell membranes were seeded with Z310 cells and allowed to grow to confluencey. 2×10^6 Jurkat cells were added to the upper chamber with or with out NECA (n=1, general AR agonist), CCPA (n=1, AAR agonist), CGS 21860 (n=1, A2AAR agonist), or DMSO vehicle (n=1). After 24 hours, migrated cells in the lower chamber were counted. Values are relative to the number of cells that migrate through non-Z310 seeded transwells and the results are shown in FIG. 12.

The test system of assay [2] is hCMEC/D3 cells. The assay is described as follows: cAMP levels in human brain endothelial cells (cAMP Screen kit). As to conditions: 15 minutes treatment, various concentrations (CCPA: at high levels). The assay is classed as cell-based. How it is done:
Adenosine receptor activation regulates cAMP levels in cells. In order to determine the sensitivity of human brain endothelial cells to adenosine receptor induced cAMP regulation, human brain endothelial cells were cultured with adenosine receptor agonists at various concentrations, followed by cAMP level analysis, as shown in FIG. 13.
HCMECD3 cells were grown to confluencey on 24 well plates. As adenosine receptor (“AR”) stimulation is known to influence cAMP levels, cells were treated with or without various concentrations of NECA (general AR agonist), CCPA (A1 AR agonist), CGS 21860 (A2A AR agonist), DMSO vehicle, or Forksolin (induces cAMP). After 15 minutes, lysis buffer was added and the cells were frozen at −80 C to stop the reaction. Duplicate samples were used for each condition. cAMP levels were assayed using a cAMP Screen kit (Applied Biosystems, Foster City, Calif.).

For another assay, the system named is blood brain barrier. The assay is described as follows: Evans Blue dye extravasation across the blood brain barrier in mice immunized for EAE. The class given is in vivo. Conditions: WT EAE mice; 100 μl 0.01 nM on day 1, 3, 5, 7, 9; dye on day 10. How it is done: In order to determine if activation of adenosine receptors would induce extravazation of Evans Blue dye across the blood brain barrier (BBB), mice were first treated on day one with NECA, a non-selective adenosine receptor agonist (n=2, 100 μl 0.01 nM); and, PBS as a vehicle control (n=2, 100 μl). On day 2 mice were then immunized with CFA-MOG35-55 and pertussis to induce EAE. Then NECA or PBS was administered every other day on day 3, day 5, day 7 and day 9. On day 10, mice were injected intravenously with 200 μl 1% Evans Blue dye ([…] total dye injected). Six hours after administration of Evans Blue, mice were anesthetized with a ketamine/xylazine mix and perfused via the left ventricle with ice cold PBS. Brains were harvested and homogenized in n,n-dimethylformamide (DMF) at 5 μl/mg (v:w). Tissue was incubated for 72 hours at room temperature in DMF to extract the dye. Following extraction, the tissue/solvent mixture was centrifuged at 500×g for 30 minutes and 100 μl of supernatant was read on a BioTex spectrophotometer at 620 nm.

Consider `CCNC(=O)[C@H]1O[C@@H](n2cnc3c(N)ncnc32)[C@H](O)[C@@H]1O` [NECA, 5′-N-ethylcarboxamidoadenosine], for which the “lymphocyte (Jurkat) migration across the in vitro BBB” value in the assay on hCMEC/D3 cells [1] was “induced some migration”. The “lymphocyte (Jurkat) migration across the CP” value in the assay with Z310 cells is given as “induced migration”. Besides, in the assay on hCMEC/D3 cells [2], the cAMP levels result is given as “increased cAMP levels”. In addition, the “BBB permeability (Evans Blue dye) over PBS control EAE mice” value in the assay with blood brain barrier is reported as “increase in BBB permeability”.
